Results: patent US5919635A (ZymoGenetics, Inc., priority 1995, dated 1999)

How the values were obtained:
[1] = test system: Human Glucagon Receptor (pLJ6') in BHK570 cells; assay: In situ binding of iodinated glucagon, pLJ6'-transfected BHK570 clones
Description: (§1) To prepare the transfectants for the ^125 I-glucagon binding assay, the spent media were aspirated from the cells, and the cells were washed three times with cold (4° C.) PBS. After the final wash, the cells were covered with Binding Media (Table 2) and incubated for ten minutes at room temperature. The media were replaced with 0.5 ml of Binding Media containing 0.5 nM ^125 I-glucagon (Amersham receptor grade, specific activity 2000 Ci/mmole; Amersham). The cells were then rocked at 30° C. for one hour. […] The media were aspirated from the cells, and the cells were washed three times with cold (4° C.) PBS. After the final wash, the cells were fixed with 1 ml of 2.5% glutaraldehyde in PBS at room temperature for 20 minutes. The glutaraldehyde was removed, and the cells were rinsed three time with PBS. The slides were air dried for one hour at room temperature, dipped in liquid photographic emulsion (Eastman Kodak Co., Rochester, N.Y.) according the manufacturer's directions, and dried at room temperature in the dark for at least 30 minutes. The slides were then plated in a light-proof box for 72 hours at 4° C.
Transfected cells were selected in the presence of G418 until single colonies were visible. Single colonies were cloned using cloning cylinders.

[2] = target: rat glucagon receptor (pLJ4 transfectants) (Rattus norvegicus, UniProt P30082); assay: Intracellular calcium response (fura-2 imaging) of pLJ4 BHK transfectants; type: cell-based; conditions: 100 nM final glucagon; resting value approximately 150 nM; from calibration experiments
Chain of rat glucagon receptor (pLJ4 transfectants) (P30082 27-485): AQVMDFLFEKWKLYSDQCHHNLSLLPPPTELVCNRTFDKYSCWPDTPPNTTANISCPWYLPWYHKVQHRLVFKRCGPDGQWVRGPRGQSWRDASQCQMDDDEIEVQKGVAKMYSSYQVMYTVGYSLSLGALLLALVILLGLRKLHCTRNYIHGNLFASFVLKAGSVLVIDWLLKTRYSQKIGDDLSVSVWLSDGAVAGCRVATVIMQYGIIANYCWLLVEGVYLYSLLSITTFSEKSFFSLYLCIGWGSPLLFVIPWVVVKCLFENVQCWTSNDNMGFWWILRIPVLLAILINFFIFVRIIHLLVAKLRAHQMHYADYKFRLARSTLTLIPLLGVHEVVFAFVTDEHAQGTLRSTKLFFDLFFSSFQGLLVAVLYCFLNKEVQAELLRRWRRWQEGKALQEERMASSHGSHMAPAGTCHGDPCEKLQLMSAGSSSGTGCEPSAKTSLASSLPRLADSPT
Description: E. Intracellular Calcium Concentration Determination
Plasmid pLJ4 BHK transfectants seeded into 2 well coverglass chambers (NUNC) at 5×10^4 cells per chamber. The cells were grown for between one and three days under normal culture conditions in methotrexate selection medium. The medium was removed by aspiration, and the chambers were rinsed twice with 1 ml Imaging Buffer (Table 3). The cells were incubated for 30 minutes in the dark at room temperature with 0.5 ml of Fura-2 AM Solution (Table 3). After incubation, the Fura-2 AM Solution was removed, and the cells were rinsed with 1 ml Imaging Buffer three times. After the final rinse, 0.5 ml of buffer was left in each chamber. […]
Imaging was performed on a Nikon Diaphot inverted fluorescence microscope equipped with a mercury arc lamp and 10× and 40× Nikon Fluor dry objective lenses. Experiments were controlled and analysed using a Sun SPARC II workstation and Inovision (Research Triangle Park, N.C.) RATIOTOOL software. […] Emission images were directed by a dichroic mirror (380 nm cutoff) to a Dage-MTI 72 CCD camera equipped with a Genesis II image intensifier and digitally recorded by the software.
Intracellular calcium concentration was monitored by calculating a ratio of emission intensities at each of the two excitation wavelenths (340/380) for each pixel of the digital microscopic image field (512×480 pixels). […]

[3] = test system: Human Glucagon Receptor (pLJ6') in COS 7 cells; assay: In situ ^125 I-glucagon binding with emulsion autoradiography, pLJ6'-transfected COS 7 cells; conditions: 72 hours after transfection
Description: as §1
Plasmid pLJ6' was transfected into COS 7 cells using a DEAE-dextran procedure described above. The cells were grown on glass chamber slides (as described in Example 3) for 72 hours after transfection.

glucagon: 29 amino acid hormone produced by the alpha cells of pancreatic islets; human glucagon (Sigma)
binding of glucagon by clones (in words) [1]: shown to bind glucagon | peak intracellular calcium concentration [2]: approximately 400 nM | cells transfected with pLJ6' that bound glucagon in a specific fashion [3]: Greater than 50%
